Measured values taken from article PMC10675077, “Antimicrobial Properties of New Polyamines Conjugated with Oxygen-Containing Aromatic Functional Groups” (Molecules, 2023).

Tested on: S. aureus
Assay: Checkerboard titration synergy, S. aureus
Format: cell-based, Staphylococcus aureus
Conditions: synergistic when FICI ≤0.5
Protocol: The combined antimicrobial activity of the test compounds with the antibacterial or antifungal control agents was performed under the same conditions used for the MIC determination and following the procedures described by Carton Herrán, Reis de Sá et al. and Zharkova et al.. For each experiment, 16 samples (4 rows × 4 columns) in a total volume of 0.5 mL were prepared in tubes using an array of combinations between the MIC value and 0 μg/mL of the compound to be tested in each row, and between the MIC value and 0 μg/mL of the reference drug in each column. In this way, a variety of mixtures with different concentrations of them alone or in combination was obtained. Briefly, 0.5 mL of a microorganism culture was added to each one of the samples, and after incubation for 24 h with shaking at the appropriate temperature (37 °C or 30 °C), the tubs were visually inspected, and the OD600 was measured. From this information, the fractional inhibitory concentration index (FICI) was calculated according to the formula FIC index = ([A]/[CMI A]) + ([B]/[CMI B]), where [A] and [B] are respective concentrations of tested polyamine and reference drug in their combination effectively inhibiting the growth of bacteria or yeast, and [MIC A] and [MIC B] are the individual MICs of the tested polyamine and reference drug when they are used alone. An interaction is considered synergistic when the FICI value is ≤0.5 [41, 42].
To confirm the data obtained in the checkerboard assay, 30 μL of a ten-fold dilution of the tubes containing concentrations of half of the MIC of each one of the compounds alone (polyamine to be tested and reference drug) and one fourth of the MIC of each one in combination were also spread in LB or SC-ura plates (according to the microorganism considered in each case) and incubated at 37 °C or 30 °C. The visualisation of these plates was performed after 24 or 48 h, respectively. All these experiments were carried out in triplicate.

Oc1ccccc1CNCCN1CCNCc2cccc(n2)CNCC1 [Compound 6a]
no synergy and -: Synergy with Ampicillin | Synergy with Ciprofloxacin | Synergy with Doxycycline | Synergy with Gentamicin
